Structures are written as SMILES.

The target in this assay is Jack bean urease (Canavalia ensiformis, UniProt P07374). Kind of assay: urease inhibition assay, indophenol. Type of assay: biochemical.
Chain of Jack bean urease (P07374 whole entry, looked up): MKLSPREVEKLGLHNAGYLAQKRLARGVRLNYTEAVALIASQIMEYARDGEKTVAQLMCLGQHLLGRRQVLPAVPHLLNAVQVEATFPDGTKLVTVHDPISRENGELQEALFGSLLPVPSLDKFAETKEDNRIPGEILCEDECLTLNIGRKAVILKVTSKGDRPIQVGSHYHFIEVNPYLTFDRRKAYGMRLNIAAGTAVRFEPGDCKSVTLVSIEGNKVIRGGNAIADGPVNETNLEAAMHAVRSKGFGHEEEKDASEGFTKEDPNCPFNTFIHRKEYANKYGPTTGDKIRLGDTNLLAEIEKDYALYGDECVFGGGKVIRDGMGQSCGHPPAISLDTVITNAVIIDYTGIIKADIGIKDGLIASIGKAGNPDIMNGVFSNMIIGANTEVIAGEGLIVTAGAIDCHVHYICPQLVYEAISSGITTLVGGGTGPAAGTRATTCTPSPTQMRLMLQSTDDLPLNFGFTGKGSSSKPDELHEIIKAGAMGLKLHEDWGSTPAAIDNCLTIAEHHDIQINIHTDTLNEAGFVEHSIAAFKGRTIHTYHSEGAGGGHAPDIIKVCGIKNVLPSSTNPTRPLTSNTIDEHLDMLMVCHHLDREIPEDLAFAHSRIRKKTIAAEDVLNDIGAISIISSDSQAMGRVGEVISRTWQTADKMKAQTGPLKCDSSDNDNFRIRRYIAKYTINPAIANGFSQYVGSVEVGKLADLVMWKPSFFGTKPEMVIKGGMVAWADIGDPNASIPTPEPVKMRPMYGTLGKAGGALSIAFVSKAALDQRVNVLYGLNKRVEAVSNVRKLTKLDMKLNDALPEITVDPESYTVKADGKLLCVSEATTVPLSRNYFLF

As for `CC(=O)c1ccc(NC(=S)NC(=O)c2ccc(Cl)cc2Cl)cc1` [compound 4, N-((4-Acetylphenyl)carbamothioyl)-2,4-dichlorobenzamide], the IC50 stood at 38.9 ± 1.7 nM.

For the origin of these results see publication PMC9185314 (RSC Advances, 2022).
